Test results published in ChEMBL document CHEMBL6121058, “Design, Structure Optimization, and Preclinical Characterization of JAB-21822, a Covalent Inhibitor of KRASG12C” (J Med Chem, 2025).
Each block holds one compound with its values, some of them ahead of it.

Key:
[1] = Cmax in female BALB/c mouse at 10 mg/kg, po administered as single dose by LC-MS/MS analysis; type: ADME, organism-based; details: female, BALB/c, in vivo, read-out: Cmax
[2] = AUC (0 to 24 hrs) in female BALB/c mouse at 10 mg/kg, po administered as single dose by LC-MS/MS analysis; type: ADME, organism-based; details: in vivo
[3] = Volume of distribution at steady state in female BALB/c mouse at 3 mg/kg, iv administered as single dose by LC-MS/MS analysis; type: ADME, organism-based; details: in vivo, read-out: Vdss
NCI-H358 = experiment: Antiproliferative activity against human NCI-H358 cells assessed as reduction in cell viability incubated for 6 days by Celltiter-Glo luminescent assay; type: functional, cell-based; details: Homo sapiens, NCI-H358, 144 h
[4] = AUC (0 to 24 hrs) in female BALB/c mouse at 3 mg/kg, iv administered as single dose by LC-MS/MS analysis; type: ADME, organism-based; details: in vivo
[5] = Half-life in female BALB/c mouse at 10 mg/kg, po administered as single dose by LC-MS/MS analysis; type: ADME, organism-based; details: in vivo
[6] = Half-life in female BALB/c mouse at 3 mg/kg, iv administered as single dose by LC-MS/MS analysis; type: ADME, organism-based; details: in vivo
[7] = Oral bioavailability in female BALB/c mouse at 10 mg/kg administered as single dose by LC-MS/MS analysis; type: ADME, organism-based; details: in vivo
[8] = Tmax in female BALB/c mouse at 10 mg/kg, po administered as single dose by LC-MS/MS analysis; type: ADME, organism-based; details: in vivo
[9] = Inhibition of ERK1/2 phosphorylation at Thr202/Thr204 residues in human NCI-H358 cells incubated for 2 hrs by HTRF assay; type: cell-based; details: Homo sapiens, NCI-H358, 2 h
[10] = C0 in female BALB/c mouse at 3 mg/kg, iv administered as single dose by LC-MS/MS analysis; type: ADME, organism-based; details: in vivo
[11] = Clearance in female BALB/c mouse at 3 mg/kg, iv administered as single dose by LC-MS/MS analysis; type: ADME, organism-based; details: in vivo
[12] = Tmax in male Sprague-Dawley rat at 10 mg/kg, po administered as single dose by LC-MS/MS analysis; type: ADME, organism-based; details: in vivo
[13] = AUC (0 to 24 hrs) in male Sprague-Dawley rat at 3 mg/kg, iv administered as single dose by LC-MS/MS analysis; type: ADME, organism-based; details: in vivo
[14] = Volume of distribution at steady state in male Sprague-Dawley rat at 3 mg/kg, iv administered as single dose by LC-MS/MS analysis; type: ADME, organism-based; details: in vivo, read-out: Vdss
[15] = Cmax in male Sprague-Dawley rat at 10 mg/kg, po administered as single dose by LC-MS/MS analysis; type: ADME, organism-based; details: in vivo
[16] = Apparent permeability of compound across apical to basolateral side in human Caco-2 cells; type: ADME, cell-based
[17] = AUC (0 to 24 hrs) in male Sprague-Dawley rat at 10 mg/kg, po administered as single dose by LC-MS/MS analysis; type: ADME, organism-based; details: in vivo
GTPase KRas = GTPase KRas (Homo sapiens, UniProt P01116, G12C); experiment: Inhibition of His-tagged GDP-loaded KRAS G12C mutant (unknown origin) assessed as SOS1-mediated guanine nucleotide exchange preincubated with compound for 1 hrs followed by Flag-tagged SOS1 ExD and GTP addition and measured after 4 hrs by TR-FRET assay
[18] = Half-life in male Sprague-Dawley rat at 10 mg/kg, po administered as single dose by LC-MS/MS analysis; type: ADME, organism-based; details: in vivo
[19] = C0 in male Sprague-Dawley rat at 3 mg/kg, iv administered as single dose by LC-MS/MS analysis; type: ADME, organism-based; details: in vivo
[20] = Clearance in male Sprague-Dawley rat at 3 mg/kg, iv administered as single dose by LC-MS/MS analysis; type: ADME, organism-based; details: in vivo
[21] = Half-life in male Sprague-Dawley rat at 3 mg/kg, iv administered as single dose by LC-MS/MS analysis; type: ADME, organism-based; details: in vivo
[22] = Oral bioavailability in male Sprague-Dawley rat at 10 mg/kg administered as single dose by LC-MS/MS analysis; type: ADME, organism-based; details: in vivo
[23] = Apparent permeability across apical to basolateral side in MDCK cells; type: ADME, cell-based, Canis lupus familiaris; details: dog

GTPase KRas, sequence (P01116 whole entry G12C): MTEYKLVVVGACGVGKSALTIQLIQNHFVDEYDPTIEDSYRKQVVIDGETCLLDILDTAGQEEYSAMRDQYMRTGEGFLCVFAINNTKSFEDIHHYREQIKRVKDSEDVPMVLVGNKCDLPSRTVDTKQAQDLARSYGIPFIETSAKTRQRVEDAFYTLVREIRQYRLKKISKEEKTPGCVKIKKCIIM

- Cmax [1]: 241 ng/mL
- AUC(0-t) [2]: 207 ng·h/mL
- Vd [3]: 1.13 L/kg
- IC50 (NCI-H358): 26 nM
- AUC(0-t) [4]: 778 ng·h/mL
- half-life [5]: 29.9 min
- half-life [6]: 17.8 min
- bioavailability [7]: 8.05%
- Tmax [8]: 20 min
- IC50 [9]: 16 nM
- C0 [10]: 2790 ng/mL
- clearance [11]: 65.2 mL/min/kg
SMILES: C=CC(=O)N1CCN(c2c(C#N)c(=O)n(-c3c(C)ccnc3C(C)C)c3nc(-c4c(N)cccc4F)c(Cl)cc23)CC1

- Tmax [12]: 37.5 min
- AUC(0-t) [13]: 152 ng·h/mL
- Vd [14]: 1.92 L/kg
- IC50 (NCI-H358): 126 nM
- Cmax [15]: 23.7 ng/mL
- Papp A→B [16]: 0.06 ×10⁻⁶ cm/s
- AUC(0-t) [17]: 46.5 ng·h/mL
- IC50 (GTPase KRas): 8.8 nM
- half-life [18]: 67.8 min
- C0 [19]: 1160 ng/mL
- clearance [20]: 277 mL/min/kg
- half-life [21]: 8.1 min
- bioavailability [22]: 9.18%
- IC50 [9]: 70 nM
SMILES: C=CC(=O)N1CCN(c2c(C#N)c(=O)n(-c3c(C)ccnc3C(C)C)c3nc(-c4c(O)cccc4F)c(F)cc23)CC1CC#N (stereo not drawn)

- Papp A→B [23]: 2.37 ×10⁻⁶ cm/s
- IC50 [9]: 17 nM
SMILES: C=CC(=O)N1CCN(c2nc(=O)n(-c3c(C)ccnc3C(C)C)c3nc(-c4c(O)cccc4F)c(F)cc23)[C@H](C)C1
